Measured values: patent publication US10004701B2, “Methods and compositions for treating infection” (UNIVERSITY OF ROCHESTER, priority 2012, dated 2018)
Counter-ions that a name gives are not always drawn. Like-named read-outs stand apart in the source and are kept apart here.

Tests used:
Test in all cases: AK assay 384-well format, Prestwick library screening
E. faecium = assay type: cell-based, Enterococcus faecium; conditions: 50 μM final drug concentration; for fold induction at 50 µM: Enterococcus faecium, 3 h
[1] = system: S. aureus strain USA300-0114; assay type: cell-based, Staphylococcus aureus; conditions: 50 μM final drug concentration; for fold induction at 50 µM: Staphylococcus aureus, USA300, 3 h
E. coli = assay type: cell-based, Escherichia coli; conditions: 50 μM final drug concentration; for fold induction at 50 µM: Escherichia coli, 3 h
K. pneumoniae = assay type: cell-based, Klebsiella pneumoniae; conditions: 50 μM final drug concentration; for fold induction at 50 µM: Klebsiella pneumoniae, 3 h
P. aeruginosa = assay type: cell-based, Pseudomonas aeruginosa; conditions: 50 μM final drug concentration; for fold induction at 50 µM: Pseudomonas aeruginosa, 3 h
E. cloacae = assay type: cell-based, Enterobacter cloacae; conditions: 50 μM final drug concentration; for fold induction at 50 µM: Enterobacter cloacae, 3 h
[2] = system: A. baumannii strain 98-37-09; assay type: cell-based, Acinetobacter baumannii; conditions: 50 μM final drug concentration; for fold induction at 50 µM: Acinetobacter baumannii, 983709, 3 h
[3] = planktonic, cutoff for positive-scoring molecules 3-fold increase, read-out: AK-based Prestwick Library Screening Results, E. faecium (fold increase in extracellular AK activity)
[4] = planktonic, cutoff for positive-scoring molecules 3-fold increase, read-out: AK-based Prestwick Library Screening Results, S. aureus (fold increase in extracellular AK activity)
[5] = planktonic, cutoff for positive-scoring molecules 3-fold increase, read-out: AK-based Prestwick Library Screening Results, E. coli (fold increase in extracellular AK activity)
[6] = planktonic, cutoff for positive-scoring molecules 3-fold increase, read-out: AK-based Prestwick Library Screening Results, K. pneumoniae (fold increase in extracellular AK activity)
[7] = planktonic, cutoff for positive-scoring molecules 3-fold increase, read-out: AK-based Prestwick Library Screening Results, P. aeruginosa (fold increase in extracellular AK activity)
[8] = planktonic, cutoff for positive-scoring molecules 3-fold increase, read-out: AK-based Prestwick Library Screening Results, E. cloacae (fold increase in extracellular AK activity)
[9] = planktonic, cutoff for positive-scoring molecules 3-fold increase, read-out: AK-based Prestwick Library Screening Results, A. baumannii (fold increase in extracellular AK activity)
[10] = planktonic E. faecium, 384-well, cutoff for positive-scoring molecules 3-fold increase, read-out: AK-based Prestwick Library Screening Results: E. faecium (increase in extracellular AK activity)
[11] = planktonic S. aureus, 384-well, cutoff for positive-scoring molecules 3-fold increase, read-out: AK-based Prestwick Library Screening Results: S. aureus (increase in extracellular AK activity)
[12] = planktonic E. coli, 384-well, cutoff for positive-scoring molecules 3-fold increase, read-out: AK-based Prestwick Library Screening Results: E. coli (increase in extracellular AK activity)
[13] = planktonic K. pneumoniae, 384-well, cutoff for positive-scoring molecules 3-fold increase, read-out: AK-based Prestwick Library Screening Results: K. pneumoniae (increase in extracellular AK activity)
[14] = planktonic P. aeruginosa, 384-well, cutoff for positive-scoring molecules 3-fold increase, read-out: AK-based Prestwick Library Screening Results: P. aeruginosa (increase in extracellular AK activity)
[15] = planktonic E. cloacae, 384-well, cutoff for positive-scoring molecules 3-fold increase, read-out: AK-based Prestwick Library Screening Results: E. cloacae (increase in extracellular AK activity)
[16] = planktonic A. baumannii, 384-well, cutoff for positive-scoring molecules 3-fold increase, read-out: AK-based Prestwick Library Screening Results: A. baumannii (increase in extracellular AK activity)
[17] = 384-well format, cutoff for positive-scoring molecules 3-fold increase

SMILES: CC[N+](C)(C)Cc1ccccc1Br [Bretylium tosylate]
- fold induction at 50 µM (E. faecium; cutoff for positive-scoring molecules 3-fold increase, read-out: AK-based Prestwick Library Screening Results, E. faecium (fold increase in extracellular AK activity)): 1
- fold induction at 50 µM ([1]; cutoff for positive-scoring molecules 3-fold increase, read-out: AK-based Prestwick Library Screening Results, S. aureus (fold increase in extracellular AK activity)): 1.3
- fold induction at 50 µM (E. coli; cutoff for positive-scoring molecules 3-fold increase, read-out: AK-based Prestwick Library Screening Results, E. coli (fold increase in extracellular AK activity)): 1.3
- fold induction at 50 µM (K. pneumoniae; cutoff for positive-scoring molecules 3-fold increase, read-out: AK-based Prestwick Library Screening Results, K. pneumoniae (fold increase in extracellular AK activity)): 1.1
- fold induction at 50 µM (P. aeruginosa; cutoff for positive-scoring molecules 3-fold increase, read-out: AK-based Prestwick Library Screening Results, P. aeruginosa (fold increase in extracellular AK activity)): 1.2
- fold induction at 50 µM (E. cloacae; cutoff for positive-scoring molecules 3-fold increase, read-out: AK-based Prestwick Library Screening Results, E. cloacae (fold increase in extracellular AK activity)): 1.6
- fold induction at 50 µM ([2]; cutoff for positive-scoring molecules 3-fold increase, read-out: AK-based Prestwick Library Screening Results, A. baumannii (fold increase in extracellular AK activity)): 1.3

SMILES: Nc1ccc(S(N)(=O)=O)cc1 [Sulfanilamide]
- fold induction at 50 µM (E. faecium; [3]): 0.9
- fold induction at 50 µM [1, 4]: 0.4
- fold induction at 50 µM (E. coli; [5]): 0.5
- fold induction at 50 µM (K. pneumoniae; [6]): 0.6
- fold induction at 50 µM (P. aeruginosa; [7]): 0.5
- fold induction at 50 µM (E. cloacae; [8]): 0.4
- fold induction at 50 µM [2, 9]: 1.5

SMILES: CO[C@H]1C[C@H](O[C@H]2[C@H](C)[C@@H](O[C@@H]3O[C@H](C)C[C@H](N(C)C)[C@H]3O)[C@@H](C)C[C@@]3(CO3)C(=O)[C@H](C)[C@@H](O)[C@@H](C)[C@@H](C)OC(=O)[C@@H]2C)O[C@@H](C)[C@@H]1O [Oleandomycin phosphate]
- fold induction at 50 µM (E. faecium; [10]): 1
- fold induction at 50 µM [1, 11]: 3.6
- fold induction at 50 µM (E. coli; [12]): 1.1
- fold induction at 50 µM (K. pneumoniae; [13]): 1
- fold induction at 50 µM (P. aeruginosa; [14]): 1
- fold induction at 50 µM (E. cloacae; [15]): 1.6
- fold induction at 50 µM [2, 16]: 1.1

SMILES: C[C@H]1C[C@@H]2[C@H]([C@@H](O)C[C@@]3(C)[C@H]2CC[C@]3(O)C(=O)CO)[C@@]2(C)C=CC(=O)C=C12 [Methylprednisolone, 6-alpha]
- AK-based Prestwick Library Screening Results, E. faecium (increase in extracellular AK activity) (E. faecium; [17]): 1.0
- AK-based Prestwick Library Screening Results, S. aureus (increase in extracellular AK activity) [1, 17]: 0.8
- AK-based Prestwick Library Screening Results, E. coli (increase in extracellular AK activity) (E. coli; [17]): 0.8
- AK-based Prestwick Library Screening Results, K. pneumoniae (increase in extracellular AK activity) (K. pneumoniae; [17]): 0.7
- AK-based Prestwick Library Screening Results, P. aeruginosa (increase in extracellular AK activity) (P. aeruginosa; [17]): 0.9
- AK-based Prestwick Library Screening Results, E. cloacae (increase in extracellular AK activity) (E. cloacae; [17]): 1.3
- AK-based Prestwick Library Screening Results, A. baumannii (increase in extracellular AK activity) [2, 17]: 0.9

SMILES: CN(C)CCCN1c2ccccc2Sc2ccc(Cl)cc21 [Chlorpromazine hydrochloride]
- fold induction at 50 µM (E. faecium; [10]): 1
- fold induction at 50 µM [1, 11]: 1.4
- fold induction at 50 µM (E. coli; [12]): 1.4
- fold induction at 50 µM (K. pneumoniae; [13]): 1.1
- fold induction at 50 µM (P. aeruginosa; [14]): 1.1
- fold induction at 50 µM (E. cloacae; [15]): 1.4
- fold induction at 50 µM [2, 16]: 1.5

SMILES: CCS(=O)(=O)CCn1c([N+](=O)[O-])cnc1C [Tinidazole]
- fold induction at 50 µM (E. faecium; [3]): 0.9
- fold induction at 50 µM [1, 4]: 1.2
- fold induction at 50 µM (E. coli; [5]): 1.2
- fold induction at 50 µM (K. pneumoniae; [6]): 0.8
- fold induction at 50 µM (P. aeruginosa; [7]): 1.1
- fold induction at 50 µM (E. cloacae; [8]): 1.5
- fold induction at 50 µM [2, 9]: 1

SMILES: CCc1cc(C(N)=S)ccn1 [Ethionamide]
- fold induction at 50 µM (E. faecium; planktonic, cutoff for positive 3-fold increase, read-out: AK-based Prestwick Library Screening Results, E. faecium (fold increase in extracellular AK activity)): 1
- fold induction at 50 µM ([1]; planktonic, cutoff for positive 3-fold increase, read-out: AK-based Prestwick Library Screening Results, S. aureus (fold increase in extracellular AK activity)): 1.3
- fold induction at 50 µM (E. coli; planktonic, cutoff for positive 3-fold increase, read-out: AK-based Prestwick Library Screening Results, E. coli (fold increase in extracellular AK activity)): 1.1
- fold induction at 50 µM (K. pneumoniae; planktonic, cutoff for positive 3-fold increase, read-out: AK-based Prestwick Library Screening Results, K. pneumoniae (fold increase in extracellular AK activity)): 1
- fold induction at 50 µM (P. aeruginosa; planktonic, cutoff for positive 3-fold increase, read-out: AK-based Prestwick Library Screening Results, P. aeruginosa (fold increase in extracellular AK activity)): 1.1
- fold induction at 50 µM (E. cloacae; planktonic, cutoff for positive 3-fold increase, read-out: AK-based Prestwick Library Screening Results, E. cloacae (fold increase in extracellular AK activity)): 1.4
- fold induction at 50 µM ([2]; planktonic, cutoff for positive 3-fold increase, read-out: AK-based Prestwick Library Screening Results, A. baumannii (fold increase in extracellular AK activity)): 1.2

SMILES: Nc1ccc(O)c(C(=O)O)c1 [Mesalamine]
- fold induction at 50 µM (E. faecium; planktonic E. faecium, positive cutoff 3-fold increase, read-out: AK-based Prestwick library screening result, E. faecium (fold increase in extracellular AK activity)): 0.9
- fold induction at 50 µM ([1]; planktonic S. aureus, positive cutoff 3-fold increase, read-out: AK-based Prestwick library screening result, S. aureus (fold increase in extracellular AK activity)): 0.7
- fold induction at 50 µM (E. coli; planktonic E. coli, positive cutoff 3-fold increase, read-out: AK-based Prestwick library screening result, E. coli (fold increase in extracellular AK activity)): 0.9
- fold induction at 50 µM (K. pneumoniae; planktonic K. pneumoniae, positive cutoff 3-fold increase, read-out: AK-based Prestwick library screening result, K. pneumoniae (fold increase in extracellular AK activity)): 0.7
- fold induction at 50 µM (P. aeruginosa; planktonic P. aeruginosa, positive cutoff 3-fold increase, read-out: AK-based Prestwick library screening result, P. aeruginosa (fold increase in extracellular AK activity)): 0.9
- fold induction at 50 µM (E. cloacae; planktonic E. cloacae, positive cutoff 3-fold increase, read-out: AK-based Prestwick library screening result, E. cloacae (fold increase in extracellular AK activity)): 1
- fold induction at 50 µM ([2]; planktonic A. baumannii, positive cutoff 3-fold increase, read-out: AK-based Prestwick library screening result, A. baumannii (fold increase in extracellular AK activity)): 0.9

SMILES: CN(C)C/C=C(/c1ccc(Br)cc1)c1cccnc1 [Zimelidine dihydrochloride monohydrate]
- fold induction at 50 µM (E. faecium; 384-well format, cutoff for positive-scoring molecules 3-fold increase, read-out: AK-based Prestwick Library Screening Results, E. faecium (increase in extracellular AK activity)): 0.9
- fold induction at 50 µM ([1]; 384-well format, cutoff for positive-scoring molecules 3-fold increase, read-out: AK-based Prestwick Library Screening Results, S. aureus (increase in extracellular AK activity)): 0.8
- fold induction at 50 µM (E. coli; 384-well format, cutoff for positive-scoring molecules 3-fold increase, read-out: AK-based Prestwick Library Screening Results, E. coli (increase in extracellular AK activity)): 0.7
- fold induction at 50 µM (K. pneumoniae; 384-well format, cutoff for positive-scoring molecules 3-fold increase, read-out: AK-based Prestwick Library Screening Results, K. pneumoniae (increase in extracellular AK activity)): 0.5
- fold induction at 50 µM (P. aeruginosa; 384-well format, cutoff for positive-scoring molecules 3-fold increase, read-out: AK-based Prestwick Library Screening Results, P. aeruginosa (increase in extracellular AK activity)): 0.6
- fold induction at 50 µM (E. cloacae; 384-well format, cutoff for positive-scoring molecules 3-fold increase, read-out: AK-based Prestwick Library Screening Results, E. cloacae (increase in extracellular AK activity)): 0.8
- fold induction at 50 µM ([2]; 384-well format, cutoff for positive-scoring molecules 3-fold increase, read-out: AK-based Prestwick Library Screening Results, A. baumannii (increase in extracellular AK activity)): 0.7

SMILES: COc1ccc2cc1Oc1ccc(cc1)C[C@H]1c3cc(c(OC)cc3CCN1C)Oc1c(OC)c(OC)cc3c1[C@H](C2)N(C)CC3 [Tetrandrine]
- fold induction at 50 µM (E. faecium; [3]): 1
- fold induction at 50 µM [1, 4]: 0.9
- fold induction at 50 µM (E. coli; [5]): 0.9
- fold induction at 50 µM (K. pneumoniae; [6]): 0.9
- fold induction at 50 µM (P. aeruginosa; [7]): 0.9
- fold induction at 50 µM (E. cloacae; [8]): 1.1
- fold induction at 50 µM [2, 9]: 0.9
